According to the supplement of paper PMC11061612:

Tests used:
Assay in all cases: combination Emax (second highest fraction inhibited in the dose matrix, 72 h); higher = more inhibition; extreme values may be limits of the assay
[1] = test system: ATN-1 (T-Lymphoblastic Leukemia)
Procedure, shortened: (§1)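 Cell lines in DMEM/F12 or RPMI with 10% FBS were plated in 1536-well plates, held 24 hours at 37°C, 5% CO2, then given two-drug dose matrices for 72 hours (DMSO typically 0.2%). Viability was read by CellTiter-Glo 2.0 luminescence and scaled as inhibition from 0 (vehicle wells) to 1 (blank wells). Combination Emax is the second-highest inhibition in the matrix; Bliss excess is observed combination effect minus expected EA + EB − EA·EB, EA and EB being single-agent effects.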

[2] = test system: BC-1 (B-Cell Non-Hodgkin's Lymphoma)
Procedure, shortened: as §1

[3] = test system: BT-474 (Breast Carcinoma)
Procedure, shortened: as §1

[4] = test system: C2BBe1 (Colorectal Carcinoma)
Procedure, shortened: as §1

[5] = test system: COR-L105 (Lung Adenocarcinoma)
Procedure, shortened: as §1

[6] = test system: GCIY (Gastric Carcinoma)
Procedure, shortened: as §1

[7] = test system: GRANTA-519 (B-Cell Non-Hodgkin's Lymphoma)
Procedure, shortened: as §1

[8] = test system: HT-1197 (Bladder Carcinoma)
Procedure, shortened: as §1

[9] = test system: HT-3 (Cervical Carcinoma)
Procedure, shortened: as §1

[10] = test system: MDA-MB-175-VII (Breast Carcinoma)
Procedure, shortened: as §1

[11] = test system: MRK-nu-1 (Breast Carcinoma)
Procedure, shortened: as §1

[12] = test system: NCI-H1048 (Small Cell Lung Carcinoma)
Procedure, shortened: as §1

[13] = test system: NCI-H1435 (Non-Small Cell Lung Carcinoma)
Procedure, shortened: as §1

[14] = test system: NCI-H1648 (Lung Adenocarcinoma)
Procedure, shortened: as §1

[15] = test system: NCI-H1975 (Lung Adenocarcinoma)
Procedure, shortened: as §1

[16] = test system: NCI-H2170 (Squamous Cell Lung Carcinoma)
Procedure, shortened: as §1

[17] = test system: OCI-M1 (Acute Myeloid Leukemia)
Procedure, shortened: as §1

[18] = test system: SBC-3 (Small Cell Lung Carcinoma)
Procedure, shortened: as §1

[19] = test system: SBC-5 (Small Cell Lung Carcinoma)
Procedure, shortened: as §1

[20] = test system: SW1463 (Colorectal Carcinoma)
Procedure, shortened: as §1

| SMILES | combination Emax [1] | combination Emax [2] | combination Emax [3] | combination Emax [4] | combination Emax [5] | combination Emax [6] | combination Emax [7] | combination Emax [8] | combination Emax [9] | combination Emax [10] | combination Emax [11] | combination Emax [12] | combination Emax [13] | combination Emax [14] | combination Emax [15] | combination Emax [16] | combination Emax [17] | combination Emax [18] | combination Emax [19] | combination Emax [20] |
| --- | --- | --- | --- | --- | --- | --- | --- | --- | --- | --- | --- | --- | --- | --- | --- | --- | --- | --- | --- | --- |
| COc1cccc(OCCCN)c1-c1cc(Nc2cnc(C#N)cn2)n[nH]1 [Prexasertib] + Cc1cc2ncnn2cc1Nc1ncc2c(n1)n(C1CCOCC1)c(=O)n2C [AZD7648] (first compound max 1 µM, 7x7, partner max 10 µM) | 1 | 0.991 | 0.222 | 0.625 | 0.444 | 0.879 | 0.852 | 0.517 | 0.388 | 0.367 | 0.803 | 0.735 | 0.336 | 0.762 | 0.409 | 0.88 | 0.948 | 0.755 | 0.901 | 0.704 |
| COc1nnc2ccc(N3CCC(c4ccc(OCCN5CCN(C)C(=O)[C@H]5C)cc4)CC3)nn12 [AZD5153] + CC1(C)CCC(CN2CCN(c3ccc(C(=O)NS(=O)(=O)c4ccc(NCC5CCOCC5)c([N+](=O)[O-])c4)c(Oc4cnc5[nH]ccc5c4)c3)CC2)=C(c2ccc(Cl)cc2)C1 [Venetoclax] (first compound max 1 µM, 7x7, partner max 1 µM) | 0.516 | 0.935 | 0.353 | 0.378 | 0.507 | 0.505 | 0.69 | 0.656 | 0.278 | 0.475 | 0.468 | 0.492 | 0.169 | 0.68 | 0.667 | 0.484 | 1 | 0.721 | 0.518 | 0.581 |
| CC1(C)CCC(CN2CCN(c3ccc(C(=O)NS(=O)(=O)c4ccc(NCC5CCOCC5)c([N+](=O)[O-])c4)c(Oc4cnc5[nH]ccc5c4)c3)CC2)=C(c2ccc(Cl)cc2)C1 [Venetoclax] + CN(C)CCCOc1ccc(-c2ccc3ncc4c(c3c2)n(C2CCOCC2)c(=O)n4C)cn1 [AZD0156] (first compound max 1 µM, 7x7, partner max 1 µM) | 0.402 | 0.555 | 0.175 | 0.253 | 0.186 | 0.403 | 0.388 | 0.198 | 0.145 | 0.174 | 0.132 | 0.178 | 0.17 | 0.267 | 0.216 | 0.243 | 0.19 | 0.766 | 0.163 | 0.0973 |
| CC1(C)CCC(CN2CCN(c3ccc(C(=O)NS(=O)(=O)c4ccc(NCC5CCOCC5)c([N+](=O)[O-])c4)c(Oc4cnc5[nH]ccc5c4)c3)CC2)=C(c2ccc(Cl)cc2)C1 [Venetoclax] + C1CN(CCC1(C(=O)N[C@@H](CCO)C2=CC=C(C=C2)Cl)N)C3=NC=NC4=C3C=CN4 [Capivasertib] (first compound max 1 µM, 7x7, partner max 3 µM) | 0.646 | 0.523 | 0.383 | 0.362 | 0.23 | 0.442 | 0.411 | 0.326 | 0.0784 | 0.393 | 0.288 | 0.679 | 0.154 | 0.45 | 0.562 | 0.375 | 0.157 | 0.543 | 0.188 | 0.11 |
| CC(=O)c1c(C)c2cnc(Nc3ccc(N4CCNCC4)cn3)nc2n(C2CCCC2)c1=O [Palbociclib] + Cc1c2c(nn1C)CSCc1cc(n(C)n1)CSc1cc(c3ccccc3c1)OCCCc1c(C(=O)O)n(C)c3c-2c(Cl)ccc13 [AZD5991] (first compound max 10 µM, 7x7, partner max 1 µM) | 0.954 | 1 | 0.497 | 0.229 | 0.207 | 0.2 | 0.295 | 0.247 | 0.693 | 0.249 | 0.993 | 0.65 | 0.171 | 0.406 | 0.321 | 0.389 | 0.457 | 0.806 | 0.443 | 0.58 |
| NC1(C(=O)N[C@@H](CCO)c2ccc(Cl)cc2)CCN(c2ncnc3[nH]ccc23)CC1 [Capivasertib] + CCN(CCO)CCCOc1ccc2c(Nc3cc(CC(=O)Nc4cccc(F)c4)[nH]n3)ncnc2c1 [AZD2811] (first compound max 10 µM, 7x7, partner max 1 µM) | 0.86 | 0.872 | 0.348 | 0.301 | 0.377 | 0.504 | 0.597 | 0.439 | 0.104 | 0.683 | 0.742 | 0.784 | 0.248 | 0.525 | 0.611 | 0.834 | 0.619 | 0.622 | 0.383 | 0.319 |
| CC1(C)CCC(CN2CCN(c3ccc(C(=O)NS(=O)(=O)c4ccc(NCC5CCOCC5)c([N+](=O)[O-])c4)c(Oc4cnc5[nH]ccc5c4)c3)CC2)=C(c2ccc(Cl)cc2)C1 [Venetoclax] + Cc1cc2ncnn2cc1Nc1ncc2c(n1)n(C1CCOCC1)c(=O)n2C [AZD7648] (first compound max 1 µM, 7x7, partner max 10 µM) | 0.47 | 0.516 | 0.197 | 0.278 | 0.274 | 0.558 | 0.332 | 0.214 | 0.135 | 0.243 | 0.523 | 0.59 | 0.165 | 0.43 | 0.392 | 0.282 | 0.234 | 0.543 | 0.212 | 0.0854 |
| CN(CCO)CC[C@H](CSc1ccccc1)Nc1ccc(S(=O)(=O)NC(=O)c2ccc(N3CCC([C@@H](O)c4ccccc4-c4ccc(Cl)cc4)CC3)cc2)cc1S(=O)(=O)C(F)(F)F [AZD4320] + Cn1cnc2c(F)c(Nc3ccc(Br)cc3Cl)c(C(=O)NOCCO)cc21 [Selumetinib] (first compound max 1 µM, 7x7, partner max 3 µM) | 0.732 | 0.443 | 0.282 | 0.587 | 0.543 | 0.658 | 1 | 0.41 | 0.257 | 0.598 | 0.562 | 0.992 | 0.819 | 0.83 | 0.417 | 0.676 | 1 | 0.981 | 0.245 | 0.534 |
| NC1(C(=O)N[C@@H](CCO)c2ccc(Cl)cc2)CCN(c2ncnc3[nH]ccc23)CC1 [Capivasertib] + Cn1cnc2c(F)c(Nc3ccc(Br)cc3Cl)c(C(=O)NOCCO)cc21 [Selumetinib] (first compound max 10 µM, 7x7, partner max 10 µM) | 0.77 | 0.829 | 0.39 | 0.569 | 0.492 | 0.512 | 0.205 | 0.531 | 0.281 | 0.957 | 0.4 | 0.7 | 0.244 | 0.893 | 0.829 | 0.653 | 0.926 | 0.346 | 0.627 | 0.65 |
| CC1(C)CCC(CN2CCN(c3ccc(C(=O)NS(=O)(=O)c4ccc(NCC5CCOCC5)c([N+](=O)[O-])c4)c(Oc4cnc5[nH]ccc5c4)c3)CC2)=C(c2ccc(Cl)cc2)C1 [Venetoclax] + COc1cc(Nc2ncc3c(n2)-c2ccc(Cl)cc2C(c2c(F)cccc2OC)=NC3)ccc1C(=O)O [Alisertib] (first compound max 1 µM, 7x7, partner max 10 µM) | 0.901 | 0.943 | 0.242 | 0.516 | 0.377 | 0.94 | 0.969 | 0.163 | 0.0652 | 0.238 | 0.628 | 0.948 | 0.287 | 0.58 | 0.469 | 0.666 | 0.815 | 0.942 | 0.615 | 0.656 |
| Cc1c2c(nn1C)CSCc1cc(n(C)n1)CSc1cc(c3ccccc3c1)OCCCc1c(C(=O)O)n(C)c3c-2c(Cl)ccc13 [AZD5991] + C[C@@H](Nc1cc(F)cc(F)c1)c1cc(C(=O)N(C)C)cc2c(=O)cc(N3CCOCC3)oc12 [AZD8186] (first compound max 1 µM, 7x7, partner max 3 µM) | 0.945 | 1 | 0.594 | 0.335 | 0.238 | 0.565 | 0.0698 | 0.252 | 0.482 | 0.313 | 1 | 0.965 | 0.276 | 0.844 | 0.431 | 0.275 | 0.0662 | 0.376 | 0.845 | 0.188 |
| Cn1cnc2c(F)c(Nc3ccc(Br)cc3Cl)c(C(=O)NOCCO)cc21 [Selumetinib] + CC(C)n1c(=O)n(C)c2cnc3cc(F)c(-c4ccc(OCCCN5CCCCC5)nc4)cc3c21 [AZD1390] (first compound max 10 µM, 7x7, partner max 0.3 µM) | 0.172 | 0.328 | 0.0709 | 0.351 | 0.402 | 0.396 | 0.095 | 0.152 | 0.105 | 0.451 | 0.35 | 0.101 | 0.13 | 0.512 | 0.342 | 0.0988 | 0.749 | 0.152 | 0.0866 | 0.702 |
